Experiments:
[1] = free and bound Vancomycin fractions by SPE extraction and Gibbs reaction colorimetry; type: in vitro ADME; conditions: commercially available whole human serum spiked with 29 μM Vancomycin, absorbance at 589 nm, n=3, error = standard deviation
Procedure: A 1 ml whole serum sample (WHS) spiked with Vancomycin is applied to a 30 mg/1 ml reversed phase Strata™-X (polystyrene-divinylbenzene-N-vinylpyrrolidone copolymer) SPE column from Phenomenex (Torrance, Calif.). The column is washed firstly with 2 ml water to remove weakly bound impurities. This washing step may be repeated if necessary. Then a known volume (1 ml) of an organic solvent such as, but not limited to, methanol is used to elute the free Vancomycin fraction from the sorbent. This optionally may be followed by another organic washing step, e.g. another washing step with an organic solvent, which may be the same solvent or a different solvent as used in the elution step. The bound Vancomycin fraction is then eluted from the SPE column using a known volume (0.5 ml) of a mixture of one-third water and two-thirds methanol (by volume).
A 350 μl fraction of each elute is then transferred into separate vials. Then 50 μl of 3.625 mM Gibbs in methanol is added to each vial, followed by 40 μl of 0.4 M sodium hydroxide in borate buffer or water, which initiates the coupling reaction and results in an immediate colour change. After a shake, typically 350 μl of each mixture is transferred into a cuvette and their spectra are measured via a spectrophotometer. […]

[2] = Zeitlinger et al. 2011, cited from earlier work

CN[C@H](CC(C)C)C(=O)N[C@H]1C(=O)N[C@@H](CC(N)=O)C(=O)N[C@H]2C(=O)N[C@H]3C(=O)N[C@H](C(=O)N[C@H](C(=O)O)c4cc(O)cc(O)c4-c4cc3ccc4O)[C@H](O)c3ccc(c(Cl)c3)Oc3cc2cc(c3O[C@@H]2O[C@H](CO)[C@@H](O)[C@H](O)[C@H]2O[C@H]2C[C@](C)(N)[C@H](O)[C@H](C)O2)Oc2ccc(cc2Cl)[C@H]1O [Vancomycin]
percentage of Vancomycin free ([1]; methanol elute): 63±12% | percentage of Vancomycin bound ([1]; water/methanol (1:2) elute): 37±2% | mean fraction bound ([2]; often quoted mean): 55% | protein bound (variation) ([2]; range of protein binding): 10-82%

From patent US10591496B2, “Analyte extraction apparatus and method” (Sphere Medical Limited, priority 2013, dated 2020)
